{"source": "ChEMBL document CHEMBL4616601", "about": "“Meeting organometallic chemistry with drug discovery: CH activation enabled discovery of a new ring system of 12H-Indazolo[2,1-a]cinnolin-12-ones with anti-proliferation activity” (Bioorg Med Chem Lett, 2020)", "key": {"[1]": {"tested_on": "PC-3", "assay": "Induction of apoptosis in human PC3 cells assessed as viable cells at 100 nM after 24 hrs by Annexin V-FITC/propidium iodide staining-based flow cytometry (reference value: 75.33%)", "type": "functional", "conditions": "PC-3, 24 h, read-out: Activity"}, "[2]": {"tested_on": "PC-3", "assay": "Induction of cell cycle arrest in human PC3 cells assessed as accumulation at G2/M phase at 100 nM after 24 hrs by flow cytometry (reference value: 18.81%)", "type": "functional"}, "[3]": {"tested_on": "PC-3", "assay": "Induction of cell cycle arrest in human PC3 cells assessed as accumulation at G1 phase at 250 nM after 24 hrs by flow cytometry (reference value: 56.46%)", "type": "functional"}, "[4]": {"tested_on": "PC-3", "assay": "Induction of apoptosis in human PC3 cells assessed as reduction in PARP expression level after 24 hrs by Western blot analysis", "type": "functional, cell-based"}, "[5]": {"tested_on": "HCT-116", "assay": "Antiproliferative activity against human HCT116 cells assessed as reduction in cell viability", "type": "functional, cell-based"}, "[6]": {"tested_on": "PC-3", "assay": "Induction of apoptosis in human PC3 cells assessed as early apoptotic cells at 250 nM after 24 hrs by Annexin V-FITC/propidium iodide staining-based flow cytometry (reference value: 11.88%)", "type": "functional"}, "[7]": {"tested_on": "PC-3", "assay": "Induction of apoptosis in human PC3 cells assessed as late apoptotic cells at 100 nM after 24 hrs by Annexin V-FITC/propidium iodide staining-based flow cytometry (reference value: 12.21%)", "type": "functional"}, "[8]": {"tested_on": "PC-3", "assay": "Induction of cell cycle arrest in human PC3 cells assessed as accumulation at S phase at 250 nM after 24 hrs by flow cytometry (reference value: 24.73%)", "type": "functional"}, "[9]": {"tested_on": "PC-3", "assay": "Induction of cell cycle arrest in human PC3 cells assessed as accumulation at G2/M phase at 250 nM after 24 hrs by flow cytometry (reference value: 18.81%)", "type": "functional"}, "[10]": {"tested_on": "PC-3", "assay": "Induction of apoptosis in human PC3 cells assessed as necrotic cells at 50 nM after 24 hrs by Annexin V-FITC/propidium iodide staining-based flow cytometry (reference value: 0.58%)", "type": "functional"}, "[11]": {"tested_on": "PC-3", "assay": "Antiproliferative activity against human PC3 cells assessed as inhibition of cell viability at 0.5 to 5 uM after 72 hrs by CCK8 assay", "type": "functional, cell-based"}, "[12]": {"tested_on": "PC-3", "assay": "Induction of cell cycle arrest in human PC3 cells assessed as accumulation at G2/M phase after 24 hrs by flow cytometry", "type": "functional, cell-based"}, "[13]": {"tested_on": "PC-3", "assay": "Antiproliferative activity against human PC3 cells assessed as reduction in cell viability after 72 hrs by CCK8 assay", "type": "functional, cell-based", "conditions": "PC-3, 72 h"}, "[14]": {"tested_on": "PC-3", "assay": "Induction of cell cycle arrest in human PC3 cells assessed as accumulation at S phase at 100 nM after 24 hrs by flow cytometry (reference value: 24.73%)", "type": "functional"}, "[15]": {"tested_on": "PC-3", "assay": "Induction of apoptosis in human PC3 cells assessed as reduction in caspase-3 expression after 24 hrs by Western blot analysis", "type": "functional, cell-based"}, "[16]": {"tested_on": "HepG2", "assay": "Antiproliferative activity against human HepG2 cells assessed as reduction in cell viability", "type": "functional, cell-based"}, "[17]": {"tested_on": "PC-3", "assay": "Inhibition of colony formation in human PC3 cells at 50 nM after 1 week relative to control", "type": "functional", "conditions": "PC-3, 168 h"}, "[18]": {"tested_on": "PC-3", "assay": "Induction of cell cycle arrest in human PC3 cells assessed as accumulation at G1 phase at 100 nM after 24 hrs by flow cytometry (reference value: 56.46%)", "type": "functional"}, "[19]": {"tested_on": "NCI-H1299", "assay": "Antiproliferative activity against human NCI-H1299 cells assessed as reduction in cell viability", "type": "functional, cell-based"}, "[20]": {"tested_on": "PC-3", "assay": "Induction of apoptosis in human PC3 cells assessed as viable cells at 250 nM after 24 hrs by Annexin V-FITC/propidium iodide staining-based flow cytometry (reference value: 75.33%)", "type": "functional", "conditions": "PC-3, 24 h, read-out: Activity"}, "[21]": {"tested_on": "PC-3", "assay": "Induction of apoptosis in human PC3 cells assessed as increase in PARP cleavage after 24 hrs by Western blot analysis", "type": "functional, cell-based"}, "[22]": {"tested_on": "PC-3", "assay": "Inhibition of colony formation in human PC3 cells at 250 nM after 1 week relative to control", "type": "functional", "conditions": "PC-3, 168 h"}, "[23]": {"tested_on": "PC-3", "assay": "Antiproliferative activity against human PC3 cells at 0.5 uM assessed as inhibition of cell viability after 72 hrs by CCK-8 assay relative to control", "type": "functional", "conditions": "PC-3, 72 h"}, "[24]": {"tested_on": "SK-BR-3", "assay": "Antiproliferative activity against human SKBR3 cells assessed as reduction in cell viability", "type": "functional, cell-based"}, "[25]": {"tested_on": "PC-3", "assay": "Induction of apoptosis in human PC3 cells assessed as necrotic cells at 250 nM after 24 hrs by Annexin V-FITC/propidium iodide staining-based flow cytometry (reference value: 0.58%)", "type": "functional"}, "[26]": {"tested_on": "PC-3", "assay": "Induction of cell cycle arrest in human PC3 cells assessed as accumulation at G1 phase at 50 nM after 24 hrs by flow cytometry (reference value: 56.46%)", "type": "functional"}, "[27]": {"tested_on": "PC-3", "assay": "Induction of cell cycle arrest at G2/M phase in human PC3 cells assessed as increase in CDC2 expression after 24 hrs by Western blot analysis", "type": "functional, cell-based"}, "[28]": {"tested_on": "DU-145", "assay": "Antiproliferative activity against human DU145 cells assessed as reduction in cell viability", "type": "functional, cell-based"}, "[29]": {"tested_on": "PC-3", "assay": "Induction of apoptosis in human PC3 cells assessed as necrotic cells at 100 nM after 24 hrs by Annexin V-FITC/propidium iodide staining-based flow cytometry (reference value: 0.58%)", "type": "functional"}, "[30]": {"tested_on": "PC-3", "assay": "Induction of cell cycle arrest in human PC3 cells assessed as accumulation at G2/M phase at 50 nM after 24 hrs by flow cytometry (reference value: 18.81%)", "type": "functional"}, "[31]": {"tested_on": "PC-3", "assay": "Induction of apoptosis in human PC3 cells assessed as late apoptotic cells at 50 nM after 24 hrs by Annexin V-FITC/propidium iodide staining-based flow cytometry (reference value: 12.21%)", "type": "functional"}, "[32]": {"tested_on": "PC-3", "assay": "Induction of cell cycle arrest at G2/M phase in human PC3 cells assessed as increase in cyclin B1 expression after 24 hrs by Western blot analysis", "type": "functional, cell-based"}, "[33]": {"tested_on": "PC-3", "assay": "Induction of apoptosis in human PC3 cells assessed as viable cells at 50 nM after 24 hrs by Annexin V-FITC/propidium iodide staining-based flow cytometry (reference value: 75.33%)", "type": "functional", "conditions": "PC-3, 24 h, read-out: Activity"}, "[34]": {"tested_on": "PC-3", "assay": "Induction of apoptosis in human PC3 cells after 24 hrs by Annexin V-FITC/propidium iodide staining-based flow cytometry", "type": "functional, cell-based"}, "[35]": {"tested_on": "SW1990", "assay": "Antiproliferative activity against human SW1990 cells assessed as reduction in cell viability", "type": "functional, cell-based"}, "[36]": {"tested_on": "PC-3", "assay": "Inhibition of colony formation in human PC3 cells after 1 week", "type": "functional, cell-based"}, "[37]": {"tested_on": "HeLa", "assay": "Antiproliferative activity against human HeLa cells assessed as reduction in cell viability", "type": "functional, cell-based"}, "[38]": {"tested_on": "PC-3", "assay": "Induction of cell cycle arrest in human PC3 cells assessed as accumulation at S phase at 50 nM after 24 hrs by flow cytometry (reference value: 24.73%)", "type": "functional"}, "[39]": {"tested_on": "PANC-1", "assay": "Antiproliferative activity against human PANC1 cells assessed as reduction in cell viability after 72 hrs", "type": "functional, cell-based", "conditions": "PANC-1, 72 h"}, "[40]": {"tested_on": "PC-3", "assay": "Induction of apoptosis in human PC3 cells assessed as early apoptotic cells at 100 nM after 24 hrs by Annexin V-FITC/propidium iodide staining-based flow cytometry (reference value: 11.88%)", "type": "functional"}, "[41]": {"tested_on": "PC-3", "assay": "Induction of apoptosis in human PC3 cells assessed as early apoptotic cells at 50 nM after 24 hrs by Annexin V-FITC/propidium iodide staining-based flow cytometry (reference value: 11.88%)", "type": "functional"}, "[42]": {"tested_on": "PC-3", "assay": "Induction of apoptosis in human PC3 cells assessed as late apoptotic cells at 250 nM after 24 hrs by Annexin V-FITC/propidium iodide staining-based flow cytometry (reference value: 12.21%)", "type": "functional"}}, "note": "pIC50: −log10 of the molar value. Active and inactive are the calls of the source. No rule for the calls is given here."}
{"smiles": "CCOC(=O)c1c(C)n2c3ccccc3c(=O)n2c2ccc3c(c12)OCO3", "values": [{"measurement": "viability at 0.1 µM", "setting": "[1]", "result": 13, "unit": "%"}, {"measurement": "Activity", "setting": "[2]", "result": 30.65, "unit": "%"}, {"measurement": "Activity", "setting": "[3]", "result": 14.06, "unit": "%"}, {"measurement": "Activity", "setting": "[4]", "result": "Dose-dependent effect"}, {"measurement": "pIC50", "setting": "[5]", "result": "6.73 to 7.39"}, {"measurement": "Activity", "setting": "[6]", "result": 27.88, "unit": "%"}, {"measurement": "Activity", "setting": "[7]", "result": 56.27, "unit": "%"}, {"measurement": "Activity", "setting": "[8]", "result": 24.16, "unit": "%"}, {"measurement": "Activity", "setting": "[9]", "result": 61.78, "unit": "%"}, {"measurement": "Activity", "setting": "[10]", "result": 2.48, "unit": "%"}, {"measurement": "Activity", "setting": "[11]", "result": "Active"}, {"measurement": "Activity", "setting": "[12]", "result": "Dose-dependent effect"}, {"measurement": "pIC50", "setting": "[13]", "result": 6.80}, {"measurement": "Activity", "setting": "[14]", "result": 22.46, "unit": "%"}, {"measurement": "Activity", "setting": "[15]", "result": "Dose-dependent effect"}, {"measurement": "pIC50", "setting": "[16]", "result": "6.73 to 7.39"}, {"measurement": "inhibition at 0.05 µM", "setting": "[17]", "result": 85, "unit": "%"}, {"measurement": "Activity", "setting": "[18]", "result": 46.89, "unit": "%"}, {"measurement": "pIC50", "setting": "[19]", "result": "6.73 to 7.39"}, {"measurement": "viability at 0.25 µM", "setting": "[20]", "result": 4.73, "unit": "%"}, {"measurement": "Activity", "setting": "[21]", "result": "Dose-dependent effect"}, {"measurement": "inhibition at 0.25 µM", "setting": "[22]", "result": 98, "unit": "%"}, {"measurement": "inhibition at 0.5 µM", "setting": "[23]", "result": 62.8, "unit": "%"}, {"measurement": "pIC50", "setting": "[24]", "result": "6.73 to 7.39"}, {"measurement": "Activity", "setting": "[25]", "result": 4.97, "unit": "%"}, {"measurement": "Activity", "setting": "[26]", "result": 55.12, "unit": "%"}, {"measurement": "Activity", "setting": "[27]", "result": "Dose-dependent effect"}, {"measurement": "pIC50", "setting": "[28]", "result": "6.73 to 7.39"}, {"measurement": "Activity", "setting": "[29]", "result": 12.2, "unit": "%"}, {"measurement": "Activity", "setting": "[30]", "result": 21.45, "unit": "%"}, {"measurement": "Activity", "setting": "[31]", "result": 37.02, "unit": "%"}, {"measurement": "Activity", "setting": "[32]", "result": "Dose-dependent effect"}, {"measurement": "viability at 0.05 µM", "setting": "[33]", "result": 34.7, "unit": "%"}, {"measurement": "Activity", "setting": "[34]", "result": "Dose-dependent effect"}, {"measurement": "pIC50", "setting": "[35]", "result": "6.73 to 7.39"}, {"measurement": "inhibition", "setting": "[36]", "result": "Dose-dependent effect"}, {"measurement": "pIC50", "setting": "[37]", "result": "6.73 to 7.39"}, {"measurement": "Activity", "setting": "[38]", "result": 23.43, "unit": "%"}, {"measurement": "pIC50", "setting": "[39]", "result": 6.71}, {"measurement": "Activity", "setting": "[40]", "result": 18.52, "unit": "%"}, {"measurement": "Activity", "setting": "[41]", "result": 25.82, "unit": "%"}, {"measurement": "Activity", "setting": "[42]", "result": 62.42, "unit": "%"}]}
